Reference: patent publication US20260325533A1, “CDK INHIBITOR COMPOUNDS” (ALEKSIA THERAPEUTICS, INC., priority 2023, published 2026)
Read-outs that look alike come from different tables or passages of the source.

How the values were obtained:
Format in all cases: biochemical
CDK2/CCNE1 = CDK2/CCNE1 (Homo sapiens, UniProt P24941); experiment: CDK2 homogeneous time-resolved fluorescence (HTRF) kinase assay; conditions: CDK2/CCNE
Method in brief: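 Compounds were titrated 11-point, half-log from typically 10 μM against 3 nM CDK2/cyclin E1 at 1 mM ATP, with a 20 min enzyme preincubation. Phosphorylation of 50 nM ULight-4E-BP1 peptide over 60 min at 23 °C was detected by europium anti-phospho antibody TR-FRET.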

CDK6/CCND1 = CDK6/CCND1 (Homo sapiens, UniProt Q00534); experiment: CDK6 homogeneous time-resolved fluorescence (HTRF) kinase assay; conditions: CDK6/CCND
Sequence of CDK6/CCND1 (Q00534 whole entry): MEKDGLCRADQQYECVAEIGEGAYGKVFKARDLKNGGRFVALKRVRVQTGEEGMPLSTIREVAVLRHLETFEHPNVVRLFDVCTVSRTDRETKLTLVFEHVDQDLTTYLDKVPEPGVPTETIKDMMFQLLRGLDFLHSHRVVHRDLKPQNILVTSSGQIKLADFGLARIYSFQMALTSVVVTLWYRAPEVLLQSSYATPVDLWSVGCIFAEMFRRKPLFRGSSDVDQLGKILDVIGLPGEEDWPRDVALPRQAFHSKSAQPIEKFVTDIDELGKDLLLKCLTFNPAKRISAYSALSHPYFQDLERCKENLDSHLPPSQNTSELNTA
Sequence of CDK6/CCND1 (P24385 whole entry partner): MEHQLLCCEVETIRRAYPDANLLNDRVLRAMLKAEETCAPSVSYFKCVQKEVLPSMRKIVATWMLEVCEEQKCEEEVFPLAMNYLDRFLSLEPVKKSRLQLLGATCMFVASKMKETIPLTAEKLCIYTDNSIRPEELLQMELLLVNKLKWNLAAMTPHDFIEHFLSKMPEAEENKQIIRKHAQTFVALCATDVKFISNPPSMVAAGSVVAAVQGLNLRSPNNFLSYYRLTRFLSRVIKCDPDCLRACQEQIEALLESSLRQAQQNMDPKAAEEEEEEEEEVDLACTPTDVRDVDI
Method in brief: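 Enzyme pre-incubated 20 min at 23 °C with compound, then reacted 60 min at 23 °C with 1 mM ATP and 50 nM ULight-4E-BP1 (Thr37/46) peptide; 1 nM enzyme, 1% DMSO. EDTA-stopped, Eu-anti-phospho antibody TR-FRET read (665 nm or 665/615 ratio); 11-point half-log titration from 10 μM gave IC50.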

CDK1/CCNB1 = CDK1/CCNB1 (Homo sapiens, UniProt P06493); experiment: CDK1 homogeneous time-resolved fluorescence (HTRF) kinase assay; conditions: CDK1/CCNB
Sequence of CDK1/CCNB1 (P06493 whole entry): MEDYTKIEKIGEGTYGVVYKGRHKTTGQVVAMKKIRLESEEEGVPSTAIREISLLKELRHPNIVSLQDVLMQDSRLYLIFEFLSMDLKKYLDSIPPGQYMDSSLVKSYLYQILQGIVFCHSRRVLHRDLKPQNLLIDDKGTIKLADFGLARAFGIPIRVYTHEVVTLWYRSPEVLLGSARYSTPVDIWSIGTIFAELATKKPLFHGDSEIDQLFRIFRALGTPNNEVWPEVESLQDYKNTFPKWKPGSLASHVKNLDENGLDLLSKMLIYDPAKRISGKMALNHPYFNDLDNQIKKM
Sequence of CDK1/CCNB1 (P14635 whole entry partner): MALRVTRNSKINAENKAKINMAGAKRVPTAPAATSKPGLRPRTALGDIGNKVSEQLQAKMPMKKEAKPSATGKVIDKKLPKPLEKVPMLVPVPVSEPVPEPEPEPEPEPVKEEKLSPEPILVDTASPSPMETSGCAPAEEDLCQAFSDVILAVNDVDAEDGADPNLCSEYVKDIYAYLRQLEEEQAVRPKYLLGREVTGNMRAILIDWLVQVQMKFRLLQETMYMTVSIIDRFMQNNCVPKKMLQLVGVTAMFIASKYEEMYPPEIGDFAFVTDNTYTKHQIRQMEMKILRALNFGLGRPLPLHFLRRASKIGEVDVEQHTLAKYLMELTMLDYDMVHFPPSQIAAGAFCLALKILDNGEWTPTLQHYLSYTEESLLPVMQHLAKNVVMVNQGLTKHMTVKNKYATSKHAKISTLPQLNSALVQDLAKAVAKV
Method in brief: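 Compounds, titrated 11 points in half-log steps typically from 10 μM, were incubated with enzyme for 20 min before ATP (1 mM) and ULight-labelled eIF4E-binding protein 1 peptide (50 nM) started a 60-min reaction at 23 °C. Phosphopeptide was detected by europium-antibody TR-FRET and IC50 values were derived.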

CDK4/CCND3 = CDK4/CCND3 (Homo sapiens, UniProt P11802); experiment: CDK4 homogeneous time-resolved fluorescence (HTRF) kinase assay; conditions: CDK4/CCND
Sequence of CDK4/CCND3 (P11802 whole entry): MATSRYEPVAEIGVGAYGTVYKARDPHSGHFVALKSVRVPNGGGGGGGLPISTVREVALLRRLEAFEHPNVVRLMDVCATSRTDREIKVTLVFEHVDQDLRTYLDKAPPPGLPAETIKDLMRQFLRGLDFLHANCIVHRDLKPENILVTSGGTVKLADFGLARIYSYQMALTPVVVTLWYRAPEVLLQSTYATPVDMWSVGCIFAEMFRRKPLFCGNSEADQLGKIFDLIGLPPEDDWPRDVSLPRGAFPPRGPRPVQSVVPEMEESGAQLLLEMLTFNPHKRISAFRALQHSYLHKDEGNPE
Sequence of CDK4/CCND3 (P30281 whole entry partner): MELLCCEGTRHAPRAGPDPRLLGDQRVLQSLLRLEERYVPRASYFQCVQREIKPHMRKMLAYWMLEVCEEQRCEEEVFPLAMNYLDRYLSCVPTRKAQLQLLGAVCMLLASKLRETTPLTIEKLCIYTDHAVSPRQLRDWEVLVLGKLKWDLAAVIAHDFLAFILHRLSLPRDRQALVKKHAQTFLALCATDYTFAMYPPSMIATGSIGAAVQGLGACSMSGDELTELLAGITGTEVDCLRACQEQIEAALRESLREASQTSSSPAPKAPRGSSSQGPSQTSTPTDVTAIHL
Method in brief: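 Steps: compound plus 1.5 nM CDK4/CCND3, 20 min, 23 °C; add 1 mM ATP and 50 nM ULight-4E-BP1 (Thr37/46) peptide, 60 min; stop with 10 mM EDTA; add 2 nM Eu anti-phospho antibody, 60 min; read 665 nm. IC50 from 11-point half-log series starting 10 μM.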

[1] = x = IC50 25-250 nM, read-out: CDK2/CCNE IC50 (25-250 nM)
[2] = x = IC50 >250 nM, read-out: CDK6/CCND IC50 (>250 nM column)
[3] = x = IC50 >250 nM, read-out: CDK1/CCNB IC50 (>250 nM column)
[4] = x = IC50 >250 nM, read-out: CDK4/CCND IC50 (>250 nM column)
[5] = x = IC50 <25 nM, read-out: CDK2/CCNE IC50 (<25 nM)
[6] = x = IC50 >250 nM, read-out: CDK2/CCNE IC50 (>250 nM column)

SMILES	IC50 (CDK2/CCNE1; [1])	IC50 (CDK6/CCND1; [2])	IC50 (CDK1/CCNB1; [3])	IC50 (CDK4/CCND3; [4])	IC50 (CDK2/CCNE1; [5])	IC50 (CDK6/CCND1; x = IC50 25-250 nM, read-out: CDK6/CCND IC50 (25-250 nM))	IC50 (CDK1/CCNB1; x = IC50 25-250 nM, read-out: CDK1/CCNB IC50 (25-250 nM))	IC50 (CDK4/CCND3; x = IC50 25-250 nM, read-out: CDK4/CCND IC50 (25-250 nM))	IC50 (CDK2/CCNE1; [6])
CS(=O)(=O)c1ccc(Nc2cc3c(C#Cc4cnc5[nH]c(=O)oc5c4)nccc3cn2)cc1 [Ex 501, 6-((7-((4-(methylsulfonyl)phenyl)amino)-2,6-naphthyridin-1-yl)ethynyl)oxazolo[4,5-b]pyridin-2(3H)-one]	25 to 250 nM	> 250 nM	> 250 nM	> 250 nM					
CS(=O)(=O)c1ccc(Nc2cc3c(C#Cc4cccn5ncnc45)nccc3cn2)cc1 [Ex 502, 5-([1,2,4]triazolo[1,5-a]pyridin-8-ylethynyl)-N-(4-(methylsulfonyl)phenyl)-2,6-naphthyridin-3-amine]	25 to 250 nM	> 250 nM	> 250 nM	> 250 nM					
CS(=O)(=O)c1ccc(Nc2cc3c(C#Cc4n[nH]c5c(F)cccc45)nccc3cn2)cc1 [Ex 503, 5-((7-fluoro-1H-indazol-3-yl)ethynyl)-N-(4-(methylsulfonyl)phenyl)-2,6-naphthyridin-3-amine]	25 to 250 nM	> 250 nM	> 250 nM	> 250 nM					
CC(C)(C#Cc1nccc2cnc(Nc3ccc(S(C)(=O)=O)cc3)cc12)CO [Ex 504, 2,2-dimethyl-4-(7-((4-(methylsulfonyl)phenyl)amino)-2,6-naphthyridin-1-yl)but-3-yn-1-ol]					< 25 nM	25 to 250 nM	25 to 250 nM	25 to 250 nM	
CC(=O)Nc1ncc(C#Cc2nccc3cnc(Nc4ccc(S(C)(=O)=O)cc4)cc23)s1 [Ex 505, N-(5-((7-((4-(methylsulfonyl)phenyl)amino)-2,6-naphthyridin-1-yl)ethynyl)thiazol-2-yl)acetamide]	25 to 250 nM	> 250 nM	> 250 nM	> 250 nM					
CS(=O)(=O)c1ccc(Nc2cc3c(C#Cc4ccc(N5CCCC(Cl)(Cl)C5=O)cc4)nccc3cn2)cc1 [Ex 506, 3,3-dichloro-1-(4-((7-((4-(methylsulfonyl)phenyl)amino)-2,6-naphthyridin-1-yl)ethynyl)phenyl)piperidin-2-one]		> 250 nM	> 250 nM	> 250 nM					> 250 nM
Cc1cnc(C#Cc2nccc3cnc(Nc4ccc(S(C)(=O)=O)cc4)cc23)cn1 [Ex 507, 5-((5-methylpyrazin-2-yl)ethynyl)-N-(4-(methylsulfonyl)phenyl)-2,6-naphthyridin-3-amine]		> 250 nM	> 250 nM	> 250 nM					> 250 nM
CS(=O)(=O)c1ccc(Nc2cc3c(C#Cc4ccnc(F)c4)nccc3cn2)cc1 [Ex 508, 5-((2-fluoropyridin-4-yl)ethynyl)-N-(4-(methylsulfonyl)phenyl)-2,6-naphthyridin-3-amine]	25 to 250 nM	> 250 nM	> 250 nM	> 250 nM					
Cc1cnc(F)cc1C#Cc1nccc2cnc(Nc3ccc(S(C)(=O)=O)cc3)cc12 [Ex 509, 5-((2-fluoro-5-methylpyridin-4-yl)ethynyl)-N-(4-(methylsulfonyl)phenyl)-2,6-naphthyridin-3-amine]	25 to 250 nM	> 250 nM	> 250 nM	> 250 nM					
COc1ccc(C#Cc2nccc3cnc(Nc4ccc(S(C)(=O)=O)cc4)cc23)nn1 [Ex 514, 5-((6-methoxypyridazin-3-yl)ethynyl)-N-(4-(methylsulfonyl)phenyl)-2,6-naphthyridin-3-amine]		> 250 nM	> 250 nM	> 250 nM					> 250 nM
Cn1cc(C#Cc2nccc3cnc(Nc4ccc(S(C)(=O)=O)cc4)cc23)ncc1=O [Ex 515, 1-methyl-5-((7-((4-(methylsulfonyl)phenyl)amino)-2,6-naphthyridin-1-yl)ethynyl)pyrazin-2(1H)-one]	25 to 250 nM	> 250 nM	> 250 nM	> 250 nM					
CS(=O)(=O)c1ccc(Nc2cc3c(C#Cc4nccc5[nH]ccc45)nccc3cn2)cc1 [Ex 516, 5-((1H-pyrrolo[3,2-c]pyridin-4-yl)ethynyl)-N-(4-(methylsulfonyl)phenyl)-2,6-naphthyridin-3-amine]		> 250 nM	> 250 nM	> 250 nM					> 250 nM
CS(=O)(=O)c1ccc(Nc2cc3c(C#Cc4ccc(C5CC5)nc4)nccc3cn2)cc1 [Ex 517, 5-((6-cyclopropylpyridin-3-yl)ethynyl)-N-(4-(methylsulfonyl)phenyl)-2,6-naphthyridin-3-amine]	25 to 250 nM	> 250 nM	> 250 nM	> 250 nM					
CS(=O)(=O)c1ccc(Nc2cc3c(C#Cc4ccc5oc(=O)[nH]c5c4)nccc3cn2)cc1 [Ex 518, 5-((7-((4-(methylsulfonyl)phenyl)amino)-2,6-naphthyridin-1-yl)ethynyl)benzo[d]oxazol-2(3H)-one]		> 250 nM	> 250 nM	> 250 nM	< 25 nM				
CS(=O)(=O)c1ccc(Nc2cc3c(C#Cc4c[nH]c5nc(Cl)ncc45)nccc3cn2)cc1 [Ex 520, 5-((2-chloro-7H-pyrrolo[2,3-d]pyrimidin-5-yl)ethynyl)-N-(4-(methylsulfonyl)phenyl)-2,6-naphthyridin-3-amine]	25 to 250 nM	> 250 nM	> 250 nM	> 250 nM					
COC(=O)c1ccc(C#Cc2nccc3cnc(Nc4ccc(S(C)(=O)=O)cc4)cc23)cn1 [Ex 521, methyl 5-((7-((4-(methylsulfonyl)phenyl)amino)-2,6-naphthyridin-1-yl)ethynyl)picolinate]	25 to 250 nM	> 250 nM	> 250 nM	> 250 nM					
CS(=O)(=O)c1ccc(Nc2cc3c(C#Cc4c[nH]c5ncccc45)nccc3cn2)cc1 [Ex 522, 5-((1H-pyrrolo[2,3-b]pyridin-3-yl)ethynyl)-N-(4-(methylsulfonyl)phenyl)-2,6-naphthyridin-3-amine]	25 to 250 nM	> 250 nM	> 250 nM	> 250 nM					
CS(=O)(=O)c1ccc(Nc2cc3c(C#Cc4cnc(C#N)nc4)nccc3cn2)cc1 [Ex 523, 5-((7-((4-(methylsulfonyl)phenyl)amino)-2,6-naphthyridin-1-yl)ethynyl)pyrimidine-2-carbonitrile]		> 250 nM	> 250 nM	> 250 nM					> 250 nM
COc1ccnc(C#Cc2nccc3cnc(Nc4ccc(S(C)(=O)=O)cc4)cc23)c1N [Ex 525, 5-((3-amino-4-methoxypyridin-2-yl)ethynyl)-N-(4-(methylsulfonyl)phenyl)-2,6-naphthyridin-3-amine]	25 to 250 nM	> 250 nM	> 250 nM	> 250 nM					
COc1ccc(C#Cc2nccc3cnc(Nc4ccc(S(C)(=O)=O)cc4)cc23)c(C)c1 [Ex 527, 5-((4-methoxy-2-methylphenyl)ethynyl)-N-(4-(methylsulfonyl)phenyl)-2,6-naphthyridin-3-amine]	25 to 250 nM	> 250 nM	> 250 nM	> 250 nM					
CS(=O)(=O)c1ccc(Nc2cc3c(C#Cc4ccc(=O)n(C(F)F)c4)nccc3cn2)cc1 [Ex 528, 1-(difluoromethyl)-5-((7-((4-(methylsulfonyl)phenyl)amino)-2,6-naphthyridin-1-yl)ethynyl)pyridin-2(1H)-one]	25 to 250 nM	> 250 nM	> 250 nM	> 250 nM					
